Here are results for 4 compounds from PubChem BioAssay (NCI).

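Tested at 5 concentrations; 48 h exposure; 96-well plates; endpoints linearly interpolated, else capped at highest concentration. The concentration for full growth arrest is given as TGI.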

In one assay the test system is HCC-2998 colon. Kind of assay: growth of human tumour cells (NCI), 48 h.
`CCCCCCCCCC[C@@H](OC(C)=O)[C@@H]1CC[C@@H]([C@@H]2CC[C@@H]([C@@H](O)CC#C/C=C/CCCCCCC[C@@]3(Sc4ccccc4)C[C@H](C)OC3=O)O2)O1` registered a TGI of more than 10 µM.
The compound `O=[N+]([O-])c1ccc(CSc2nncc3[nH]cnc23)cc1` displayed a TGI of more than 100 µM.
`N#CSCC(Cl)=CCl` (mixture of isomers) returned a TGI of more than 100 µM.
Turning to `CCN1CCCc2cc3c(C(F)(F)F)cc(=O)oc3cc21`, the TGI is more than 100 µM.

For a further assay, the system named is SW-620 colon. The experiment in a line: growth of human tumour cells (NCI), 48 h.
Compound `CCCCCCCCCC[C@@H](OC(C)=O)[C@@H]1CC[C@@H]([C@@H]2CC[C@@H]([C@@H](O)CC#C/C=C/CCCCCCC[C@@]3(Sc4ccccc4)C[C@H](C)OC3=O)O2)O1` showed a TGI of more than 10 µM.
On the same count and under the same terms, with `O=[N+]([O-])c1ccc(CSc2nncc3[nH]cnc23)cc1` the figure was more than 100 µM.
Turning to `N#CSCC(Cl)=CCl` (mixture of isomers), the TGI is more than 100 µM.
Same read-out and setting: with `CCN1CCCc2cc3c(C(F)(F)F)cc(=O)oc3cc21` the figure was more than 100 µM.

The next assay relates to K-562 leukemia. Kind of assay: growth of human tumour cells (NCI), 48 h.
Take `CCCCCCCCCC[C@@H](OC(C)=O)[C@@H]1CC[C@@H]([C@@H]2CC[C@@H]([C@@H](O)CC#C/C=C/CCCCCCC[C@@]3(Sc4ccccc4)C[C@H](C)OC3=O)O2)O1`: the TGI was more than 10 µM.
Compound `O=[N+]([O-])c1ccc(CSc2nncc3[nH]cnc23)cc1` returned a TGI of more than 100 µM.
Still for that read-out and setting: with `N#CSCC(Cl)=CCl` (mixture of isomers) the figure was more than 100 µM; with `CCN1CCCc2cc3c(C(F)(F)F)cc(=O)oc3cc21`, more than 100 µM.

In another assay the test system is BT-549 breast. Kind of assay: growth of human tumour cells (NCI), 48 h.
On to `O=[N+]([O-])c1ccc(CSc2nncc3[nH]cnc23)cc1`, for which the TGI was more than 100 µM.
Compound `CCN1CCCc2cc3c(C(F)(F)F)cc(=O)oc3cc21` showed a TGI of more than 100 µM.

In a further assay the test system is U251 CNS. The experiment in a line: growth of human tumour cells (NCI), 48 h.
In turn, `O=[N+]([O-])c1ccc(CSc2nncc3[nH]cnc23)cc1` registered a TGI of more than 100 µM.
Still for that read-out and setting: with `N#CSCC(Cl)=CCl` (mixture of isomers) the figure was more than 100 µM.
Same read-out and setting: with `CCN1CCCc2cc3c(C(F)(F)F)cc(=O)oc3cc21` the figure was more than 100 µM.

The subject of a further assay is PC-3 prostate. Kind of assay: growth of human tumour cells (NCI), 48 h.
Compound `CCCCCCCCCC[C@@H](OC(C)=O)[C@@H]1CC[C@@H]([C@@H]2CC[C@@H]([C@@H](O)CC#C/C=C/CCCCCCC[C@@]3(Sc4ccccc4)C[C@H](C)OC3=O)O2)O1` gave a TGI of more than 10 µM.
`O=[N+]([O-])c1ccc(CSc2nncc3[nH]cnc23)cc1`: the TGI is more than 100 µM.
On the same count and under the same terms, with `N#CSCC(Cl)=CCl` (mixture of isomers) the figure was more than 100 µM; with `CCN1CCCc2cc3c(C(F)(F)F)cc(=O)oc3cc21`, 93.1 µM.

The next assay concerns TK-10 renal. Kind of assay: growth of human tumour cells (NCI), 48 h.
The compound `CCCCCCCCCC[C@@H](OC(C)=O)[C@@H]1CC[C@@H]([C@@H]2CC[C@@H]([C@@H](O)CC#C/C=C/CCCCCCC[C@@]3(Sc4ccccc4)C[C@H](C)OC3=O)O2)O1` displayed a TGI of more than 10 µM.
Take `O=[N+]([O-])c1ccc(CSc2nncc3[nH]cnc23)cc1`: the TGI was more than 100 µM.
Turning to `N#CSCC(Cl)=CCl` (mixture of isomers), the TGI was more than 100 µM.
As for `CCN1CCCc2cc3c(C(F)(F)F)cc(=O)oc3cc21`, the TGI is more than 100 µM.

The test system of the next assay is SN12C renal. Kind of assay: growth of human tumour cells (NCI), 48 h.
For the compound `CCCCCCCCCC[C@@H](OC(C)=O)[C@@H]1CC[C@@H]([C@@H]2CC[C@@H]([C@@H](O)CC#C/C=C/CCCCCCC[C@@]3(Sc4ccccc4)C[C@H](C)OC3=O)O2)O1`, the TGI is more than 10 µM.
As for `O=[N+]([O-])c1ccc(CSc2nncc3[nH]cnc23)cc1`, the TGI is more than 100 µM.
`N#CSCC(Cl)=CCl` (mixture of isomers) registered a TGI of more than 100 µM.
Same read-out and setting: with `CCN1CCCc2cc3c(C(F)(F)F)cc(=O)oc3cc21` the figure was more than 100 µM.

For the next assay, the system named is HS 578T breast. The experiment in a line: growth of human tumour cells (NCI), 48 h.
With `N#CSCC(Cl)=CCl` (mixture of isomers), the TGI is more than 100 µM.

A further assay concerns DU-145 prostate. The experiment in a line: growth of human tumour cells (NCI), 48 h.
As to `CCCCCCCCCC[C@@H](OC(C)=O)[C@@H]1CC[C@@H]([C@@H]2CC[C@@H]([C@@H](O)CC#C/C=C/CCCCCCC[C@@]3(Sc4ccccc4)C[C@H](C)OC3=O)O2)O1`, the TGI was more than 10 µM.
Consider `N#CSCC(Cl)=CCl` (mixture of isomers), for which the TGI is more than 100 µM.
On the same count and under the same terms, with `CCN1CCCc2cc3c(C(F)(F)F)cc(=O)oc3cc21` the figure was more than 100 µM.

The next assay concerns T-47D breast. Kind of assay: growth of human tumour cells (NCI), 48 h.
Turning to `CCCCCCCCCC[C@@H](OC(C)=O)[C@@H]1CC[C@@H]([C@@H]2CC[C@@H]([C@@H](O)CC#C/C=C/CCCCCCC[C@@]3(Sc4ccccc4)C[C@H](C)OC3=O)O2)O1`, the TGI was more than 10 µM.
In turn, `O=[N+]([O-])c1ccc(CSc2nncc3[nH]cnc23)cc1` yielded a TGI of more than 100 µM.
Still for that read-out and setting: with `N#CSCC(Cl)=CCl` (mixture of isomers) the figure was more than 100 µM; with `CCN1CCCc2cc3c(C(F)(F)F)cc(=O)oc3cc21`, more than 100 µM.

The subject of another assay is MCF7 breast. Kind of assay: growth of human tumour cells (NCI), 48 h.
With `CCCCCCCCCC[C@@H](OC(C)=O)[C@@H]1CC[C@@H]([C@@H]2CC[C@@H]([C@@H](O)CC#C/C=C/CCCCCCC[C@@]3(Sc4ccccc4)C[C@H](C)OC3=O)O2)O1`, the TGI is more than 10 µM.
`O=[N+]([O-])c1ccc(CSc2nncc3[nH]cnc23)cc1` gave a TGI of more than 100 µM.
`CCN1CCCc2cc3c(C(F)(F)F)cc(=O)oc3cc21` returned a TGI of more than 100 µM.

A further assay deals with OVCAR-3 ovarian. The experiment in a line: growth of human tumour cells (NCI), 48 h.
Consider `O=[N+]([O-])c1ccc(CSc2nncc3[nH]cnc23)cc1`, for which the TGI was more than 100 µM.
The compound `N#CSCC(Cl)=CCl` (mixture of isomers) displayed a TGI of more than 100 µM.
Regarding `CCN1CCCc2cc3c(C(F)(F)F)cc(=O)oc3cc21`, the TGI was more than 100 µM.

A further assay concerns MDA-N. The experiment in a line: growth of human tumour cells (NCI), 48 h.
Regarding `CCCCCCCCCC[C@@H](OC(C)=O)[C@@H]1CC[C@@H]([C@@H]2CC[C@@H]([C@@H](O)CC#C/C=C/CCCCCCC[C@@]3(Sc4ccccc4)C[C@H](C)OC3=O)O2)O1`, the TGI was more than 10 µM.
The same measure, in the same setting: with `O=[N+]([O-])c1ccc(CSc2nncc3[nH]cnc23)cc1` the figure was more than 100 µM; with `N#CSCC(Cl)=CCl` (mixture of isomers), more than 100 µM; with `CCN1CCCc2cc3c(C(F)(F)F)cc(=O)oc3cc21`, more than 100 µM.

The test system of the next assay is M14 melanoma. Kind of assay: growth of human tumour cells (NCI), 48 h.
For the compound `CCCCCCCCCC[C@@H](OC(C)=O)[C@@H]1CC[C@@H]([C@@H]2CC[C@@H]([C@@H](O)CC#C/C=C/CCCCCCC[C@@]3(Sc4ccccc4)C[C@H](C)OC3=O)O2)O1`, the TGI is more than 10 µM.
As to `O=[N+]([O-])c1ccc(CSc2nncc3[nH]cnc23)cc1`, the TGI is more than 100 µM.
`N#CSCC(Cl)=CCl` (mixture of isomers) gave a TGI of more than 100 µM.
